The source of these data is ChEMBL document CHEMBL5726170, “Histone demethylase inhibitors” (2019).

This test in a line: JMJD2C Assay: The ability of test compounds to inhibit the activity of JMJD2C was determined in 384-well plate format under the following reaction conditions: 0.3 nM JMJD2C, 300 nM H3K9me3-biotin labeled peptide (Anaspec cat #64360), 2 μM alpha-ketoglutaric acid in assay buffer of 50 mM HEPES, pH7.3, 0.005% Brij35, 0.5 mM TCEP, 0.2 mg/ml BSA, 50 μM sodium L-ascorbate, and 2 μM ammonium iron(II) sulfate. Reaction product was determined quantitatively by TR-FRET after the addition of detection reagent Phycolink Streptavidin-allophycocyanin (Prozyme) and Europium-anti-di-methylated histone H3 lysine 9 (H3K9me2) antibody (PerkinElmer) in the presence of 5 mM EDTA in LANCE detection buffer (PerkinElmer) at a final concentration of 50 nM and 1 nM, respectively.The assay reaction was initiated by the following: 2 μl of the mixture of 900 nM H3K9me3-biotin labeled peptide and 6 μM alpha-ketoglutaric acid with 2 μl of 11-point serial diluted inhibitor in 3% DMSO were added to each well of the plate, followed by the addition of 2 μl of 0.9 nM JMJD2C to initiate the reaction. The reaction mixture was incubated at room temperature for 30 min, and terminated by the addition of 6 μl of 5 mM EDTA in LANCE detection buffer containing 100 nM Phycolink Streptavidin-allophycocyanin and 2 nM Europium-anti-H3K9me2 antibody. Plates were read by EnVisionMultilabel Reader in TR-FRET mode (excitation at 320 nm, emission at 615 nm and 665 nm) after 1 hr incubation at rt. A ratio was calculated (665/615) for each well and fitted to determine inhibition constant (IC50).
Take `O=C(O)c1ccncc1NCC1CCCc2cc(OC(F)(F)F)ccc21` (centres undefined): the IC50 entry is “in the range around 5.5 µM”.

With `O=C(O)c1ccncc1NCC1CCCc2c(Oc3ccccc3)cccc21` (centres undefined), the IC50 entry was “in the range around 5.5 µM”.

`O=C(O)c1ccncc1NCC1CCOc2cc(F)ccc21` (centres undefined): the IC50 result was “in the range around 0.55 µM”.

For the molecule `O=C(O)c1ccncc1NCC1CCCc2c(OCC3CC3)cccc21` (centres undefined), the IC50 entry was “in the range around 5.5 µM”.

The IC50 is the point on the concentration scale where inhibition reaches its midpoint.
